# In US9445596B2, “Small molecule compounds for the control of nematodes” (California Institute of Technology, priority 2011, dated 2016):
# Entries after “also recorded” stand apart in the source; their conditions may differ.
# Tests used:
# C. elegans = experiment: Aggregation assay; assay type: in vivo
# Procedure: Aggregation behavior of worms was measured using assays reported in de Bono & Bargmann, Cell 94:679-89 (1998), which is hereby incorporated by reference in its entirety. Aggregation assays were conducted on standard NGM plates. Plates containing indole ascarosides were made by adding the indole ascaroside stock solution to the NGM media before they were poured onto the plates. These plates were dried at room temperature for 2 to 3 days. Control plates were treated similarly, except that ethanol solutions instead of icas solutions were added to the plates, corresponding to the amount of ethanol introduced via the icas solutions. Final ethanol concentrations of the plates were below 0.1% for all conditions. After drying, both control plates and plates containing indole ascarosides were seeded with 150 μl of an overnight culture of E. coli OP50 using a micropipette, and were allowed to dry for 2 days at room temperature. For “low worm density” experiments, 20 worms were placed onto the lawn and left at 20° C. for 3 hours. For “high worm density” experiments, approximately 120 worms were placed onto the bacterial lawn and left at 20° C. for 3 hours. Aggregation behavior was quantified as the number of animals that were in touch with two or more animals at greater than 50% of their body length.
# ASK neurons = experiment: Calcium imaging (G-CaMP), ASK neurons; assay type: in vivo, C. elegans; settings: 1 pM to 1 μM
# Description: (§1) Transgenic lines that express the genetically encoded Ca^2+ sensor in ASK (kyEx2866) and AIA (kyEx2916) (Macosko et al., Nature 458:1171-75 (2009), which is hereby incorporated by reference in its entirety) were used for calcium imaging. Young adults or adult worms were inserted into an “Olfactory chip” microfluidic device (Chronis et al., Nat. Methods 4:727-31 (2007), which is hereby incorporated by reference in its entirety). Dilutions of icas#3 were done with S-basal buffer (with no cholesterol). As stock solutions of icas#3 contained small amounts of ethanol, equivalent amounts of ethanol were added to the S-basal control flow.
# (§2) Imaging was conducted using an inverted Zeiss microscope equipped with an Andor camera. Exposure time for image acquisition was 300 milliseconds. Before imaging the ASK neuron, the worm was exposed to blue light for 3 minutes as ASK responds to the blue light itself. […] Movies were analyzed using custom-made Matlab scripts. The first peak of fluorescence immediately after exposure to buffer or icas#3 was chosen for calculating the average change in fluorescence upon exposure to either buffer or icas#3. The value for this maximum was then subtracted from the mean fluorescence during the 5 seconds before the delivery of icas#3/buffer (corresponding to the region between 5 to 10 seconds in FIG. 2D).
# AIA interneurons = experiment: Calcium imaging (G-CaMP), AIA interneurons; assay type: in vivo, C. elegans
# Description: as §1, §2
# [1] = system: C. elegans hermaphrodites and males; experiment: Spot attraction assay; assay type: in vivo
# Procedure: The spot attraction assays were conducted according to a previously reported method (Pungaliya et al., PNAS 106:7708-13 (2009); Srinivasan et al., Nature 454:1115-18 (2008), which are hereby incorporated by reference in their entirety). For both C. elegans hermaphrodites and males, 50-60 worms were harvested daily at the fourth larval stage (L4) and stored segregatedly by sex at 20° C. overnight, to be used as young adults the following day. For the competition experiments, two conditions were used: 120 nM ascr#3 and 10 nM icas#3 (Condition 1), or 12 μM ascr#3 and 1 μM icas#3 (Condition 2) in water containing 10% ethanol. Aliquots were stored at −20° C. in 20 μL tubes. 10% ethanol in water was used as control.
# Attraction assays with hbas#3 were conducted as previously reported (Srinivasan et al., Nature 454:1115-18 (2008); Pungaliya et al., Proc. Natl. Acad. Sci. U.S.A. 106:7708-13 (2009), which are hereby incorporated by reference in their entirety). For the attraction assays, 50-60 hermaphrodite worms were harvested daily at the early fourth larval stage (L4) and stored at 20° C. overnight to be used as young adults the following day. Hbas#3 was dissolved in water containing 10% ethanol. Aliquots were stored at −20° C. in 20 μL tubes. 10% ethanol in water was used as control.
# [2] = system: C. elegans hermaphrodites; experiment: Quadrant chemotaxis assay; assay type: in vivo; settings: for chemotaxis of hermaphrodites: 1 pM, all tested strains
# Procedure: Chemotaxis to both non-indole and indole ascarosides was assessed on 10 cm four-quadrant petri plates (Wicks et al., Dev. Biol. 221:295-307 (2000), which is hereby incorporated by reference in its entirety). Each quadrant was separated from adjacent ones by plastic spacers (FIG. 1B). Pairs of opposite quadrants were filled with nematode growth medium (NGM) agar containing either indole ascarosides or non-indole ascarosides at different concentrations. Animals were washed gently in a S-basal buffer, placed in the center of a four-quadrant plate with ascarosides in alternating quadrants, and scored after 15 minutes and 30 minutes. A chemotaxis index was calculated as: (the number of animals on ascaroside quadrants minus the number of animals on buffer quadrants)/(total number of animals).
# Chemotaxis to hbas#3 was assessed on 10 cm four-quadrant petri plates (Wicks et al., Dev. Biol. 221:295-307 (2000), which is hereby incorporated by reference in its entirety). Each quadrant was separated from adjacent ones by plastic spacers. Pairs of opposite quadrants were filled with nematode growth medium (NGM) agar containing different concentrations of hbas#3. Animals were washed gently in an S-basal buffer and placed in the center of a four-quadrant plate with ascarosides in alternating quadrants, and scored after 15 minutes and 30 minutes. A chemotaxis index was calculated as: (the number of animals on ascaroside quadrants minus the number of animals on buffer quadrants)/(total number of animals).
# [3] = system: C. elegans hermaphrodites; experiment: Measurement of locomotory parameters (automated worm tracking); assay type: in vivo
# Procedure: Reversal frequency and velocity were measured using an automated worm-tracking system (Pungaliya et al., PNAS 106:7708-13 (2009); Srinivasan et al., Nature 454:1115-18 (2008), which are hereby incorporated by reference in their entirety).
# ASI sensory neurons = settings: McGrath et al., Nature 2011; cited from earlier work
# [4] = social wild-type strains (RC301 and CB4856) and npr-1(ad609) hermaphrodites
# [5] = ASK-ablated hermaphrodites on icas#3 plates
compound,measurement,setting,value
C[C@H](CCCC/C=C/C(=O)O)O[C@@H]1O[C@@H](C)[C@H](OC(=O)c2c[nH]c3ccccc23)C[C@H]1O [icas#3],increase in aggregation of N2 hermaphrodites,C. elegans; high worm density (120 worms per 5 cm plate),≤ 3 fold
same,average clump size,C. elegans; icas#3-mediated aggregation,3-5 worms
same,concentrations at which active as hermaphrodite attractants and aggregation signals,C. elegans; in vivo,femtomolar to picomolar
same,concentrations that induce maximal aggregation,C. elegans; in vivo,1 to 10 pM
same,lowest concentration with very strong increase in aggregation (as low as),"C. elegans; low worm density (20 worms per 5 cm plate), solitary and social hermaphrodites",10 fM
same,increase in aggregation of N2 hermaphrodites,"C. elegans; low worm density, 1 pM",≤ 4 fold
same,aggregation of daf-22 hermaphrodites compared with N2,"C. elegans; low worm density, 1 pM and 10 pM",less aggregation than N2 worms at 1 pM icas#3 but not at 10 pM icas#3
same,aggregation of hermaphrodites lacking the ASK neurons,"C. elegans; low worm density, any of the tested concentrations",do not aggregate; also recorded: did not aggregate
same,aggregation of npr-1(ad609) hermaphrodites,"C. elegans; low worm density, over the entire tested concentration range, without a drop off at higher concentrations",increased aggregation
same,aggregation at 1 nM,"C. elegans; low worm density, social strain CB4856, 1 nM",not significantly different from the control
same,concentration of maximal aggregation,"C. elegans; low worm density, social strain CB4856, bell-shaped response curve",1 pM
same,aggregation of him-5 males,C. elegans; plates containing 100 fM or 100 pM,significantly increased
same,Ca^2+ transients in ASK neurons,ASK neurons,no detection of Ca^2+ transients
same,G-CaMP fluorescence signals in AIA interneurons,AIA interneurons; 1 μM,induces G-CaMP fluorescence signals
same,G-CaMP fluorescence in the AIA neurons,AIA interneurons; in vivo,significantly increased G-CaMP fluorescence
same,attraction in the spot attraction assay,"[1]; 1 pmol, N2 hermaphrodites and him-5 males",attractive to both C. elegans sexes
same,attraction after ablation of both ASI and ASK neurons,[1]; ASI- and ASK-ablated hermaphrodites,did not result in a more significant loss of attraction compared to ASK ablation alone
same,attraction after ablation of the ASI neurons,[1]; ASI-ablated hermaphrodites,no significant effect
same,attraction of AIA-deficient worms,[1]; MEC-4 expressed in AIA interneuron,did not show any attraction
same,attraction of daf-22 hermaphrodites,[1]; daf-22 hermaphrodites,attracted; also recorded: as strongly as N2 worms
same,attraction after ablation of ASK sensory neurons,[1]; hermaphrodites lacking ASK neurons,near complete loss of attraction
same,attraction in the spot attraction assay,"[1]; high concentrations, males and hermaphrodites",attracted both males and hermaphrodites
same,attraction of hermaphrodites,"[1]; low concentrations, N2 hermaphrodites",strongly attractive to hermaphrodites
same,attraction of males,"[1]; low concentrations, males",no longer attracted
same,attraction of social hermaphrodites,[1]; [4],attracted; also recorded: strongly attracted
same,attraction after ablation of the RMG interneuron,"[1]; wild-type (N2) and ncs-1::gfp hermaphrodites, RMG ablated",does not affect attraction; also recorded: did not affect icas#3 response
same,chemotaxis of hermaphrodites,[2]; after 15 minutes,attracted
same,chemotaxis of hermaphrodites,[2]; after 30 minutes,attracted
same,lowest concentration resulting in strong attraction of hermaphrodites (as low as),[2]; both in the presence and absence of food,1 pM
same,response of daf-22 hermaphrodites,[2]; daf-22 hermaphrodites,as strongly as N2 worms
same,attraction of social hermaphrodites,[2]; [4],strongly attracted
same,worm velocity,[3]; 1-10 pM,not significantly reduced
same,forward velocity of ASK-ablated hermaphrodites,[3]; [5],do not display reduced forward velocity
same,reversal frequency of ASK-ablated hermaphrodites,[3]; [5],does not increase; also recorded: neither increased reversal frequency
same,mean stopped duration,"[3]; aggregation-inducing concentrations, N2 hermaphrodites",strongly increase mean stopped duration
C[C@@H]1O[C@@H](OCCC(=O)O)[C@H](O)C[C@H]1O [ascr#5],calcium transients in the ASI sensory neurons,ASI sensory neurons,does not elicit calcium transients
